This note sets out measurements from patent US20220295782A1, “METHOD FOR PRODUCING FROZEN BODY OF THREE-DIMENSIONAL TISSUE AGGREGATE OF RETINAL PIGMENT EPITHELIAL CELLS” (NICHIREI BIOSCIENCE INC., priority 2019, published 2022).

Each structure is given as a SMILES string. Where two headings read alike, the source gives them in different places.

The subject of this data set is RPE cells. On the procedure:
RPE cells (manufactured by Lonza K.K., 00194987) were seeded on a 96-well plate (Falcon, 353072) at 3.3×10^4 cells/well, and cultured in a maintenance medium (350 mL of DMEM (Sigma, D6046), 150 mL of F12 HAM (Sigma, N6658), 10 mL of B27 (Invitrogen, 17504-044), 5 mL of 200 mM L-glutamine (Sigma, G7513), 10 ng/mL of bFGF (Wako, 060-04543), […] of SB431542 hydrate (Sigma, S4317)) until the cells reached confluent. The cultured cells were washed with PBS(−) at room temperature, and then exposed to a pretreatment solution for 10 minutes or 30 minutes.
As the pretreatment solutions, solutions having EG concentrations of 10 (v/v) %, 12.5 (v/v) %, 15 (v/v) %, 17.5 (v/v) % and 20 (v/v) % were used. As the solvent of the pretreatment solution, a Dulbecco's modified Eagle's medium (DMEM) supplemented with 2 mM L-glutamine or PBS(−) was used.

For the compound `OCCO` [EG, ethylene glycol], the “initial toxicity (metabolic activity of cells, MTS assay)” value (0 hours of culture time, EG 10-20 (v/v) % in DMEM supplemented with 2 mM L-glutamine, exposure 10 minutes) was “increased in a concentration-dependent manner from the EG concentration of 12.5 (v/v) %”. Besides, the “time to recovery of metabolic activity” value (30-minute exposure versus 10-minute exposure) is on record as “longer time to recovery is required”. Further, the “cytotoxicity (MTS assay)” value reads like this: (30 minutes of exposure time to the pretreatment solution) “same tendency of cytotoxicity as in the results of FIG. 1”; (PBS(-) used as the solvent) “the same tendency as when the DMEM medium supplemented with glutamine was used”. For the same compound, the “culture time in which recovery of metabolic activity is possible” value (up to EG concentration of 17.5 (v/v) %, DMEM with glutamine, exposure 10 minutes) is given as “about 24 hours”.
